Experimental data published in US5328902A, “7-(substituted)-9-[(substituted glycyl)amido]-6-demethyl-6-deoxytetracyclines” (American Cyanamid Co., priority 1992, dated 1994).
≈ marks a conversion by molar mass, not a printed value. Where two headings read alike, the source gives them in different places.

Legend:
E. coli UBMS 88-1 Tet B = test: microbe, parasite or virus in culture; type: cell-based
E. coli J3272 Tet sens. = test: MIC, agar dilution; type: cell-based; conditions: Escherichia coli, 18 h, read-out: MIC
[1] = tested on: E. coli MC 4100 TNIOC Tet B; test: microbe, parasite or virus in culture; type: cell-based; conditions: Escherichia coli, 18 h
E. coli J3272 Tet C = test: microbe, parasite or virus in culture; type: cell-based; conditions: Escherichia coli, J3272TETC, 18 h
E. coli UBMS 89-1 Tet M = test: microbe, parasite or virus in culture; type: cell-based
[2] = tested on: E. coli UBMS 89-2 Tet sens.; test: MIC, agar dilution; type: cell-based; conditions: Escherichia coli, 18 h
E. coli J2175 = test: MIC, agar dilution; type: cell-based; conditions: Escherichia coli, J2175, 18 h
E. coli BAJ9003 IMP MUT = test: microbe, parasite or virus in culture; type: cell-based
E. coli UBMS 90-5 = test: MIC, agar dilution; type: cell-based; conditions: Escherichia coli, UBMS905, 18 h, read-out: MIC
E. coli #311 (MP) = test: MIC, agar dilution; type: cell-based
E. coli ATCC 25922 = test: MIC, agar dilution; type: cell-based
E. coli J3272 Tet D = test: microbe, parasite or virus in culture; type: cell-based
S. mariescens FPOR 8733 = test: MIC, agar dilution; type: cell-based
[3] = tested on: Ps. acruginosa ATCC 27853; test: MIC, agar dilution; type: cell-based
S. aureus NEMC 8769 = test: MIC, agar dilution; type: cell-based; conditions: S. aureus NEMC 8769
S. aureus UBMS 88-4 = test: MIC, agar dilution; type: cell-based
[4] = tested on: S. aureus UBMS 88-5 Tet M; test: microbe, parasite or virus in culture; type: cell-based
[5] = tested on: S. aureus UBMS 90-1 Tet M; test: microbe, parasite or virus in culture; type: cell-based
S. aureus UBMS 90-3 = test: MIC, agar dilution; type: cell-based
[6] = tested on: S. aureus UBMS 90-2 Tet M; test: microbe, parasite or virus in culture; type: cell-based
S. aureus IVES 2943 = test: MIC, agar dilution; type: cell-based
S. aureus ROSE (MP) = test: MIC, agar dilution; type: cell-based
S. aureus SMITH (MP) = test: MIC, agar dilution; type: cell-based; conditions: S. aureus SMITH (MP)
S. aureus IVES 1 983 = test: MIC, agar dilution; type: cell-based
S. aureus ATCC 29213 = test: MIC, agar dilution; type: cell-based; conditions: S. aureus ATCC 29213
E. faecalis ATCC 29212 = test: MIC, agar dilution; type: cell-based
[7] = tested on: Wild Type S30 (wild type ribosomes, E. coli strain MRE600, tetracycline sensitive); test: E. coli in vitro protein translation system, wild type S30
[8] = tested on: E. coli MC 4100 Tet sens.; test: MIC, agar dilution; type: cell-based
[9] = tested on: X. maltophilia NEMC 87210; test: MIC, agar dilution; type: cell-based
[10] = tested on: S. aureus UBMS 88-7 Tet K; test: microbe, parasite or virus in culture; type: cell-based; conditions: S. aureus UBMS 88-7 Tet K
[11] = tested on: S. hemolyticus AVHAH 88-3; test: MIC, agar dilution; type: cell-based; conditions: S. hemolyticus AVHAH 88-3
Enterococcus 12201 = test: MIC, agar dilution; type: cell-based; conditions: Enterococcus 12201

CN(C)c1ccc(O)c2c1C[C@H]1C[C@H]3[C@H](N(C)C)C(O)=C(C(N)=O)C(=O)[C@@]3(O)C(O)=C1C2=O [O, Minocycline, reference compound]
MIC (E. coli UBMS 88-1 Tet B; Escherichia coli, UBMS881TETB, 18 h): 16 µg/mL (≈ 35 µM) | MIC (E. coli J3272 Tet sens.): 0.5 µg/mL (≈ 1.09 µM) | MIC [1]: 8 µg/mL (≈ 17.5 µM) | MIC (E. coli J3272 Tet C): 2 µg/mL (≈ 4.37 µM) | MIC (E. coli UBMS 89-1 Tet M; Escherichia coli, UBMS891TETM, 18 h): 8 µg/mL (≈ 17.5 µM) | MIC [2]: 0.5 µg/mL (≈ 1.09 µM) | MIC (E. coli J2175): 0.5 µg/mL (≈ 1.09 µM) | MIC (E. coli BAJ9003 IMP MUT; Escherichia coli, BAJ9003IMPMUT, 18 h): 0.03 µg/mL (≈ 0.0656 µM) | MIC (E. coli UBMS 90-5): 0.5 µg/mL (≈ 1.09 µM) | MIC (E. coli #311 (MP); Escherichia coli, 18 h): 0.25 µg/mL (≈ 0.546 µM) | MIC (E. coli ATCC 25922; Escherichia coli, ATCC25922, 18 h): 0.5 µg/mL (≈ 1.09 µM) | MIC (E. coli J3272 Tet D; Escherichia coli, J3272TETD, 18 h): 8 µg/mL (≈ 17.5 µM) | MIC (S. mariescens FPOR 8733; 18 h, read-out: MIC): 2 µg/mL (≈ 4.37 µM) | MIC ([3]; 18 h): 8 µg/mL (≈ 17.5 µM) | MIC (S. aureus NEMC 8769; Staphylococcus aureus, NEMC8769, 18 h, read-out: MIC): < 0.015 µg/mL | MIC (S. aureus UBMS 88-4; Staphylococcus aureus, UBMS884, 18 h): 0.03 µg/mL (≈ 0.0656 µM) | MIC ([4]; Staphylococcus aureus, UBMS885TETM, 18 h): 4 µg/mL (≈ 8.74 µM) | MIC ([5]; Staphylococcus aureus, UBMS901TETM, 18 h): 4 µg/mL (≈ 8.74 µM) | MIC (S. aureus UBMS 90-3; Staphylococcus aureus, UBMS903, 18 h): 0.03 µg/mL (≈ 0.0656 µM) | MIC ([6]; Staphylococcus aureus, UBMS902TETM, 18 h): 2 µg/mL (≈ 4.37 µM) | MIC (S. aureus IVES 2943; Staphylococcus aureus, IVES2943, 18 h): 2 µg/mL (≈ 4.37 µM) | MIC (S. aureus ROSE (MP); Staphylococcus aureus, 18 h): 0.5 µg/mL (≈ 1.09 µM) | MIC (S. aureus SMITH (MP); Staphylococcus aureus, 18 h, read-out: MIC): 0.03 µg/mL (≈ 0.0656 µM) | MIC (S. aureus IVES 1 983; Staphylococcus aureus, IVES1983, 18 h): 2 µg/mL (≈ 4.37 µM) | MIC (S. aureus ATCC 29213; Staphylococcus aureus, ATCC29213, 18 h, read-out: MIC): 0.03 µg/mL (≈ 0.0656 µM) | MIC (E. faecalis ATCC 29212; Enterococcus faecalis, ATCC29212, 18 h): 1 µg/mL (≈ 2.19 µM) | % Inhibition Wild Type S30 ([7]; Conc. 0.06 mg/ml): 78% | % Inhibition Wild Type S30 ([7]; Conc. 1.0 mg/ml): 98% | inhibition of protein synthesis occuring on wild type ribosomes ([7]; coupled transcription and translation system): effectively inhibit protein synthesis

CN(C)c1cc(NC(=O)CNCCCCO)c(O)c2c1C[C@H]1C[C@H]3[C@H](N(C)C)C(O)=C(C(N)=O)C(=O)[C@@]3(O)C(O)=C1C2=O [R]
MIC (E. coli UBMS 88-1 Tet B; E. coli UBMS 88-1 Tet B, 18 hours at 35° C.): > 32 µg/mL | MIC [8]: 8 µg/mL (≈ 13.3 µM) | MIC (E. coli UBMS 89-1 Tet M; E. coli UBMS 89-1 Tet M): 32 µg/mL (≈ 53.2 µM) | MIC (E. coli BAJ9003 IMP MUT; E. coli BAJ9003 IMP MUT): 4 µg/mL (≈ 6.65 µM) | MIC (E. coli #311 (MP); E. coli #311 (MP)): 32 µg/mL (≈ 53.2 µM) | MIC (E. coli ATCC 25922; E. coli ATCC 25922): 32 µg/mL (≈ 53.2 µM) | MIC (E. coli J3272 Tet D; E. coli J3272 Tet D): 8 µg/mL (≈ 13.3 µM) | MIC (S. mariescens FPOR 8733): 8 µg/mL (≈ 13.3 µM) | MIC [9]: 8 µg/mL (≈ 13.3 µM) | MIC ([3]; Ps. acruginosa ATCC 27853): > 32 µg/mL | MIC (S. aureus NEMC 8769): 8 µg/mL (≈ 13.3 µM) | MIC (S. aureus UBMS 88-4; S. aureus UBMS 88-4): 8 µg/mL (≈ 13.3 µM) | MIC ([4]; S. aureus UBMS 88-5 Tet M): 32 µg/mL (≈ 53.2 µM) | MIC [10]: 32 µg/mL (≈ 53.2 µM) | MIC ([5]; S. aureus UBMS 90-1 Tet M): 32 µg/mL (≈ 53.2 µM) | MIC (S. aureus UBMS 90-3; S. aureus UBMS 90-3): 8 µg/mL (≈ 13.3 µM) | MIC ([6]; S. aureus UBMS 90-2 Tet M): 16 µg/mL (≈ 26.6 µM) | MIC (S. aureus IVES 2943; S. aureus IVES 2943): > 32 µg/mL | MIC (S. aureus ROSE (MP); S. aureus ROSE (MP)): > 32 µg/mL | MIC (S. aureus SMITH (MP)): 8 µg/mL (≈ 13.3 µM) | MIC (S. aureus IVES 1 983; S. aureus IVES 1 983): > 32 µg/mL | MIC (S. aureus ATCC 29213): 16 µg/mL (≈ 26.6 µM) | MIC [11]: 32 µg/mL (≈ 53.2 µM) | MIC (Enterococcus 12201): 8 µg/mL (≈ 13.3 µM) | MIC (E. faecalis ATCC 29212; E. faecalis ATCC 29212): 8 µg/mL (≈ 13.3 µM)
